Measured values published in PubChem BioAssay (NCI).
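Cultured in 96-well plates, cells were exposed to test compound for 48 hours across five concentrations. GI50 = concentration required for 50% inhibition of growth. The concentration for full growth arrest is given as TGI.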

Assays:
Assay in all cases: NCI tumour cell line growth inhibition, 48 h
IGROV1 ovarian = tested on: IGROV1 ovarian
OVCAR-8 ovarian = tested on: OVCAR-8 ovarian
A549 NSCLC = tested on: A549 NSCLC
NCI-H522 lung = tested on: NCI-H522 lung
SNB-19 CNS = tested on: SNB-19 CNS
SK-OV-3 ovarian = tested on: SK-OV-3 ovarian
SF-295 CNS = tested on: SF-295 CNS
OVCAR-5 ovarian = tested on: OVCAR-5 ovarian
PC-3 prostate = tested on: PC-3 prostate
BT-549 breast = tested on: BT-549 breast

| Structure (SMILES) | TGI (IGROV1 ovarian) [µM] | TGI (OVCAR-8 ovarian) [µM] | TGI (A549 NSCLC) [µM] | TGI (NCI-H522 lung) [µM] | TGI (SNB-19 CNS) [µM] | TGI (SK-OV-3 ovarian) [µM] | TGI (SF-295 CNS) [µM] | TGI (OVCAR-5 ovarian) [µM] | TGI (PC-3 prostate) [µM] | GI50 (IGROV1 ovarian) [µM] | GI50 (OVCAR-8 ovarian) [µM] | GI50 (A549 NSCLC) [µM] | GI50 (NCI-H522 lung) [µM] | GI50 (SNB-19 CNS) [µM] | GI50 (SK-OV-3 ovarian) [µM] | GI50 (SF-295 CNS) [µM] | GI50 (PC-3 prostate) [µM] | GI50 (OVCAR-5 ovarian) [µM] | GI50 (BT-549 breast) [µM] | TGI (BT-549 breast) [µM] |
| --- | --- | --- | --- | --- | --- | --- | --- | --- | --- | --- | --- | --- | --- | --- | --- | --- | --- | --- | --- | --- |
| O=S1c2ccccc2N=C(c2cccs2)CC1c1ccccc1O (stereo not given) | > 100 | > 100 | > 100 | > 100 | > 100 | > 100 | > 100 | > 100 |  |  |  |  |  |  |  |  |  |  |  |  |
| O=C(Nc1ccn(C2CCC(COC(c3ccccc3)(c3ccccc3)c3ccccc3)O2)c(=O)n1)c1ccccc1 (stereo not given) | 13.4 | 10.1 | 13 | 19.2 | 14.8 | 26.3 | 5.9 | 7.95 | 5.71 |  |  |  |  |  |  |  |  |  |  |  |
| NC1=NN(c2ccccc2)C(=O)C1/C(=N\NC(=O)c1cc2ccccc2cc1O)C(=O)Nc1ccc(Cl)c(Cl)c1 (stereo not given) | > 100 | > 100 | > 100 | 37.2 | > 100 |  | > 100 | > 100 |  |  |  |  |  |  |  |  |  |  |  |  |
| COC(=O)/C(=C1\OC(=O)C(c2ccc(Cl)cc2)=C1O)c1ccc(Cl)cc1 | > 100 | > 100 | 84.3 | 50.4 | 94.5 | 84.6 | 43 | 79.5 |  |  |  |  |  |  |  |  |  |  |  |  |
| O=C1/C(=C/c2ccc(C(=O)O)cc2)CNC/C1=C\c1ccc(C(=O)O)cc1 | > 100 | > 100 | > 100 |  |  | > 100 | > 100 | > 100 |  |  |  |  |  |  |  |  |  |  |  |  |
| Cc1ccccc1N=C(c1ccccc1)C1C(=O)c2ccccc2C1=O | 39.4 | > 100 | > 100 | 17.7 | > 100 | 77.2 | 36.5 | > 100 | 62 | 10.7 | 15 | 12.3 | 1.99 | 20.8 | 3.68 | 13.8 | 18.9 | 24.6 |  |  |
| C/C(COc1ccccc1)=N\NC(N)=S | > 100 | > 100 | > 100 |  |  | > 100 | > 100 | > 100 |  |  |  |  |  |  |  |  |  |  |  |  |
| O=Cc1cc2sc(C=O)cc2s1 | > 100 | > 100 | > 100 | > 100 | > 100 | > 100 | > 100 | > 100 |  |  |  |  |  |  |  |  |  |  |  |  |
| CCCCCCCN(CCCCCCC)C(=N)c1ccc(OC)c2ccccc12 | 2.7 | 3.04 | 2.82 | 2.73 | 2.93 | 3.14 | 2.72 | 2.88 | 2.78 | 1.1 | 1.41 | 1.37 | 1.25 | 1.38 | 1.66 | 1.24 | 1.35 | 1.29 |  |  |
| COC1C[C@H](O[C@@H]2C[C@H](O[C@@H]3C[C@H](O[C@@H]4C(=O)c5c(cc6cc(O[C@H]7C[C@@H](O[C@H]8C[C@@H](O)[C@H](O)C(C)O8)[C@H](O)C(C)O7)c(C)c(O)c6c5O)C[C@H]4C(OC)C(=O)[C@@H](O)[C@@H](C)O)OC(C)[C@H]3O)OC(C)[C@@H]2O)OC(C)[C@@H]1O (stereo not given in full) |  | > 32.5 | > 32.5 | 0.265 | > 32.5 | > 32.5 | > 32.5 | > 32.5 | > 32.5 |  | 0.108 | 0.185 | 0.0696 | 0.101 | 0.105 | 0.104 | 0.123 | 0.106 | 0.0785 | 0.565 |
| CN(N=O)N1C(=O)SCC(c2ccccc2)(c2ccccc2)C1=O |  | 60.2 | > 100 | 91.1 | > 100 | 64.6 | > 100 | > 100 | > 100 |  |  |  |  |  |  |  |  |  |  |  |
| CC(C)(C)c1cc([Si](C)(C)C)c(C#N)c([Si](C)(C)C)c1 | > 100 | > 100 | > 100 | > 100 | > 100 | > 100 | > 100 | > 100 |  |  |  |  |  |  |  |  |  |  |  |  |
| CCn1c(C)nc([N+](=O)[O-])c1Sc1ncc[nH]1 | > 100 | > 100 | > 100 | 38.1 | > 100 | > 100 | > 100 | > 100 |  |  |  |  |  |  |  |  |  |  |  |  |
| Cc1cc(NCCCCCCCCNc2cc(C)nc3cc(N(C)C)ccc23)c2ccc(N(C)C)cc2n1 |  | 38.2 | 21.8 | 12.9 | 61.6 |  | 30.2 |  |  |  |  |  |  |  |  |  |  |  |  |  |
| Clc1cc2ns[s+]c2cc1Cl | > 100 | > 100 | > 100 | > 80.5 | > 100 | > 100 | > 100 | > 100 |  |  |  |  |  |  |  |  |  |  |  |  |
| O=C(NNC(=O)/C(=C/c1cccc([N+](=O)[O-])c1)NC(=O)c1ccccc1)Nc1ccc(Cl)cc1 | 27.4 | 62.1 | 31.4 | 25.7 | 30.8 | 32.1 | 34.3 | 32.4 |  |  |  |  |  |  |  |  |  |  |  |  |
| [N-]=[N+]=NCCCn1c2c(c3ccccc3c1=O)C(=O)c1cc3c(cc1-2)OCO3 | > 100 | > 100 | > 100 | > 100 |  |  | > 100 | > 100 | > 100 | 47.3 | > 100 | > 100 | 15.6 |  |  | 44.1 | > 100 | > 100 | > 100 | > 100 |
| CC1=NN(c2ccccc2)C(=O)C1N=Nc1ccc(Br)cc1C (stereo not given) | > 100 | > 100 | > 100 |  | > 100 | > 100 | > 100 | > 100 |  |  |  |  |  |  |  |  |  |  |  |  |
| O=C(Nc1cccc(Cl)c1)Nc1cc(C(F)(F)F)ccc1Cl |  | 7.75 | 8.98 | 7.7 | 19.6 | 16.5 |  | 12.7 | 32.8 |  | 3.16 | 2.72 | 2.14 | 3.81 | 3.54 |  | 3.86 | 3.17 | 2.81 | 10.1 |
| O=c1[nH]c(C2CCCCC2)nc2ccc(Cl)cc12 | > 100 | > 100 | > 100 |  | > 100 | > 100 | > 100 | > 100 |  |  |  |  |  |  |  |  |  |  |  |  |
| c1ccc2cc(Cn3c(-c4cccc5ccccc45)[n+](Cc4ccc5ccccc5c4)c4c5ccccc5c5ccccc5c43)ccc2c1 |  | 1.92 |  |  | 1.62 | 1.62 | 1.05 | 1.68 | 1.53 |  | 0.332 |  |  | 0.318 | 0.322 | 0.203 | 0.158 | 0.378 |  |  |
| CN1C(=O)CC(CC(=O)C2CCCCC2=O)CC1=O (stereo not given) | > 100 | > 100 | > 100 | > 100 | > 100 | > 100 | > 100 | > 100 |  |  |  |  |  |  |  |  |  |  |  |  |
| COc1cc(OC)c(OC)cc1/C=C/c1ccc2ccccc2n1 | > 10 | > 10 | > 10 | > 10 |  | > 10 | > 10 | > 10 | > 10 |  |  |  |  |  |  |  |  |  |  | > 10 |
| O=C(COc1ccc(Cl)cc1Cl)NNc1ccc([N+](=O)[O-])cc1 | > 100 | > 100 | > 100 |  | 95.6 | 55 | 40.1 | > 100 | > 100 | 36 | 98.9 | > 100 |  | 25 | 24 | 19.7 | > 100 | > 100 | 24 | 52 |
| CCCCCCCC(=O)[O-].N.N.N.N.N.[Co+3].[O-][Cl+3]([O-])([O-])[O-] | > 100 | > 100 | > 100 | > 100 | > 100 | > 100 | > 100 | > 100 |  | > 100 | > 100 | > 100 | > 100 | > 100 | > 100 | > 100 |  | > 100 |  |  |
| COc1ccc(N2CCN(c3nc(-c4ccccn4)nc4sc5c(c34)CCCCCC5)CC2)cc1 | > 100 | > 100 | > 100 | > 100 |  | > 100 |  | > 100 | > 100 | 5.34 | 5.23 | 3.25 | 18.6 |  | > 100 |  | 3.31 | 51.7 | 6.92 | > 100 |
| COC(=O)C1(N2CCOCC2)CCC([C@@H](c2ccccc2)C(C)[N+](=O)[O-])C1 (stereo not given in full) |  | > 100 | > 100 |  | > 100 | > 100 | > 100 | > 100 | > 100 |  |  |  |  |  |  |  |  |  |  | 60.8 |
| COc1ccc(C2[C@@H](Cl)C(=O)N2c2ccc(OC)cc2)cc1 (stereo not given in full) | > 100 | > 100 | > 100 | > 100 | > 100 | 53 | > 100 | > 100 |  |  |  |  |  |  |  |  |  |  |  |  |
| O=S(=O)(O)c1ccc([Se][Se]c2ccc(S(=O)(=O)O)cc2)cc1 | > 100 | > 100 | > 100 | > 100 | > 100 | > 100 | > 100 | > 100 |  |  |  |  |  |  |  |  |  |  |  |  |
